Data: patent US20230142274A1 (SIMCERE PHARMACEUTICAL CO., LTD., priority 2020, published 2023)

Key:
[1] = tested on: Daudi cells; experiment: Inhibition of human Daudi lymphoma cell proliferation (Cell-Titer Glo); format: cell-based; conditions: Homo sapiens, 72 h, 3 days incubation, read-out: Anti-Proliferative Activity Against Daudi cells IC50
Summary of the method: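 Daudi cells in RPMI 1640 with 10% FBS were seeded and grown 24 h, then exposed for 3 days (37 °C, 5% CO2) to 10-point 3-fold serial dilutions at 0.25% final DMSO. Viability was read by CellTiter-Glo ATP luminescence, and IC50 was fitted from % inhibition against top/bottom controls.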

[2] = tested on: WI-38 cells; experiment: Inhibition of human WI-38 embryonic lung cell proliferation (Cell-Titer Glo); format: cell-based; conditions: Homo sapiens, 72 h, 3 days incubation, read-out: Anti-Proliferative Activity Against WI-38 cells IC50
Protocol: Introduction of the experimental principle: After the RAD51 inhibitor to be tested was co-incubated with human embryonic lung cells for a period of time, the influence of the test compound on cell proliferation was measured by a method for counting cell proliferation based on the quantitative measurement of intracellular ATP content.
Materials and Cells: WI-38 cells were purchased from ATCC; fetal bovine serum, 1640 medium and penicillin-streptomycin were purchased from Gibco Inc. (U.S.), 96-well plates were purchased from Corning Inc. (U.S.), and Cell-Titer Glo reagent was purchased from Promega Corporation (U.S.).
Cell culture: WI-38 cells were cultured in an EMEM culture medium containing 10% fetal bovine serum and 1% penicillin-streptomycin at 37° C. in an atmosphere containing 5% CO2. Cells in logarithmic growth phase could be used for experiments.
Assay of cell proliferation and viability: Cell-Titer Glo reagent was used to measure the inhibitory activities of the compounds on the proliferation of WI-38 cell strain. The concentration of cells was adjusted, and the cells were seeded in a 96-well plate and cultured at 37° C. in an atmosphere containing 5% CO2 for 24 hours. The powder of the compound was dissolved in 100% DMSO to form a 10 mM solution. 10 μl of the solution of the compound was aspirated and transferred into a 96-well compound plate containing 20 μl of DMSO solution in each well for 3-fold dilution and was then formulated to 10 serial dilutions. Thereafter, 2 μl of the solution of the compound was aspirated from the corresponding well and added correspondingly into a 96-well intermediate compound dilution plate containing 78 μl of complete culture medium in each well. The resultant was mixed well, and the plate was centrifuged at 1000 rpm for 1 minute. Finally, 10 μl of the solution of the compound was aspirated from the corresponding well of the 96-well intermediate compound dilution plate, and transferred into the corresponding well of the cell culture plate containing 90 μl of complete culture medium. The final concentration of DMSO was 0.25%. After the addition of the compound, the cells were continued to be incubated for 3 days at 37° C. in an atmosphere containing 5% CO2. Cell-Titer Glo reagent was added to measure cell viability.
% Compound inhibition was calculated and IC50 of the compound was fitted;
% Compound inhibition=1−100%×(Signal−Bottom)/(Top−Bottom)

Compound: CC(C)OC(=O)Nc1ccc(-c2cnc([C@H]3CC[C@H](NC(=O)OC(C)C)CC3)s2)c(NS(=O)(=O)C(C)(C)C)c1 [Example 19, isopropyl trans-N-[3-(tert-butylsulfonylamino)-4-[2-[4-(isopropoxycarbonylamino)cyclohexyl]thiazol-5-yl]phenyl]carbamate]
- IC50 [1]: 960 nM
- IC50 [2]: > 25000 nM

Compound: CC(C)OC(=O)Nc1ccc(-c2cnc(C3CC4CCC(C3)C4NC(=O)OC(C)C)s2)c(S(=O)(=O)NC(C)(C)C)c1 (stereo not shown) [Example 21, isopropyl N-[3-(tert-butylsulfamoyl)-4-[2-[8-(isopropoxycarbonylamino)-3-bicyclo[3.2.1]octyl]thiazol-5-yl]phenyl]carbamate]
- IC50 [1]: 440 nM
- IC50 [2]: > 25000 nM

Compound: CC(C)OC(=O)N[C@H]1CC[C@H](c2ncc(-c3ccc(Nc4cc[nH]n4)cc3S(=O)(=O)NC(C)(C)C)s2)CC1 [Example 22, isopropyl trans-(4-(5-(4-((1H-pyrazol-3-yl)amino)-2-(N-(tert-butyl)sulfamoyl)phenyl)thiazol-2-yl)cyclohexyl)carbamate]
- IC50 [1]: 35 nM
- IC50 [2]: 23300 nM

Compound: CC(C)OC(=O)Nc1ccc(-c2nnc([C@H]3CC[C@H](NC(=O)OC(C)C)CC3)s2)c(S(=O)(=O)C(C)C)c1 [Example 25, isopropyl trans-N-[4-[5-[4-(isopropoxycarbonylamino)cyclohexyl]-1,3,4-thiadiazol-2-yl]-3-isopropylsulfonyl-phenyl]carbamate]
- IC50 [1]: 740 nM
- IC50 [2]: > 25000 nM

Compound: CC(C)OC(=O)N[C@H]1CC[C@H](c2ncc(-c3ccc(NC(=O)NCc4ccccc4)cc3P(C)(C)=O)s2)CC1 [Example 26, isopropyl trans-(4-(5-(4-(3-benzylureido)-2-(dimethylphosphoryl)phenyl)thiazol-2-yl)cyclohexyl)carbamate]
- IC50 [1]: 130 nM
- IC50 [2]: > 25000 nM

Compound: Cc1cc(Nc2ccc(-c3cnc([C@H]4CC[C@H](NC(=O)OC(C)C)CC4)s3)c(S(=O)(=O)NC(C)(C)C)c2)n[nH]1 [Example 28, isopropyl trans-(4-(5-(2-(N-(tert-butyl)sulfamoyl)-4-((5-methyl-1H-pyrazol-3-yl)amino)phenyl)thiazol-2-yl)cyclohexyl)carbamate]
- IC50 [1]: 48 nM
- IC50 [2]: 15000 nM

Compound: CC(C)OC(=O)N[C@H]1CC[C@H](c2ncc(-c3ccc(Nc4ccno4)cc3S(=O)(=O)NC(C)(C)C)s2)CC1 [Example 29, isopropyl trans-(4-(5-(2-(N-(tert-butyl)sulfamoyl)-4-(isoxazol-5-ylamino)phenyl)thiazol-2-yl)cyclohexyl)carbamate]
- IC50 [1]: 340 nM
- IC50 [2]: 18400 nM

Compound: CC(C)OC(=O)Nc1ccc(-c2cnc([C@H]3CC[C@H](NC(=O)OC(C)C)CC3)s2)c(S(=O)(=O)C(C)(C)C)c1 [Example 34, isopropyl trans-N-[3-tert-butylsulfonyl-4-[2-[4-(isopropoxycarbonylamino)cyclohexyl]thiazol-5-yl]phenyl]carbamate]
- IC50 [1]: 700 nM
- IC50 [2]: > 25000 nM

Compound: Cc1cc(Nc2ccc(-c3cnc([C@H]4CC[C@H](NC(=O)OC(C)C)CC4)s3)c(S(=O)(=O)C(C)C)c2)nn1C [Example 36, isopropyl trans-(4-(5-(4-((1,5-dimethyl-1H-pyrazol-3-yl)amino)-2-(isopropylsulfonyl)phenyl)thiazol-2-yl)cyclohexyl)carbamate]
- IC50 [1]: 77 nM
- IC50 [2]: 24600 nM

Compound: Cc1cc(Nc2ccc(-c3cnc([C@H]4CC[C@H](NC(=O)OC(C)C)CC4)s3)c(S(=O)(=O)C(C)C)c2)no1 [Example 37, isopropyl trans-(4-(5-(2-(isopropylsulfonyl)-4-((5-methylisoxazol-3-yl)amino)phenyl)thiazol-2-yl)cyclohexyl)carbamate]
- IC50 [1]: 330 nM
- IC50 [2]: > 25000 nM

Compound: CC(C)OC(=O)N[C@H]1CC[C@H](c2ncc(-c3ccc(Nc4cn(C)nn4)cc3S(=O)(=O)C(C)C)s2)CC1 [Example 39, isopropyl trans-(4-(5-(2-(isopropylsulfonyl)-4-((1-methyl-1H-1,2,3-triazol-4-yl)amino)phenyl)thiazol-2-yl)cyclohexyl)carbamate]
- IC50 [1]: 230 nM
- IC50 [2]: > 25000 nM

Compound: Cc1cc(Nc2ccc(-c3cnc([C@H]4CC[C@H](NC(=O)OC(C)C)CC4)s3)c(S(=O)(=O)C(C)C)c2)n[nH]1 [Example 40, isopropyl trans-(4-(5-(2-(isopropylsulfonyl)-4-((5-methyl-1H-pyrazol-3-yl)amino)phenyl)thiazol-2-yl)cyclohexyl)carbamate]
- IC50 [1]: 51 nM
- IC50 [2]: 22900 nM

Compound: CC(C)OC(=O)N[C@H]1CC[C@H](c2ncc(-c3ccc(Nc4cc(C5CC5)[nH]n4)cc3S(=O)(=O)C(C)C)s2)CC1 [Example 45, isopropyl trans-N-[4-[5-[4-[(5-cyclopropyl-1H-pyrazol-3-yl)amino]-2-isopropylsulfonyl-phenyl]thiazol-2-yl]cyclohexyl]carbamate]
- IC50 [1]: 62 nM
- IC50 [2]: > 25000 nM

Compound: CC(C)OC(=O)N[C@H]1CC[C@H](c2ncc(-c3ccc(Nc4cn(C)nn4)cc3P3(=O)CCCC3)s2)CC1 [Example 53, isopropyl trans-N-[4-[5-[4-[(1-methyltriazol-4-yl)amino]-2-(1-oxidophospholan-1-yl)phenyl]thiazol-2-yl]cyclohexyl]carbamate]
- IC50 [1]: 100 nM
- IC50 [2]: > 25000 nM

Compound: CC(C)OC(=O)N[C@H]1CC[C@H](c2ncc(-c3ccc(Nc4cc(C5CC5)[nH]n4)cc3S(=O)(=O)C3CC3)s2)CC1 [Example 62, isopropyl trans-N-[4-[5-[4-[(5-cyclopropyl-1H-pyrazol-3-yl)amino]-2-cyclopropylsulfonyl-phenyl]thiazol-2-yl]cyclohexyl]carbamate]
- IC50 [1]: 10 nM
- IC50 [2]: > 25000 nM

Compound: CC(C)OC(=O)N[C@H]1CC[C@H](c2ncc(-c3ccc(Nc4cnn(C)c4)cc3S(=N)(=O)C3CC3)s2)CC1 (stereo partly drawn) [Example 69, isopropyl trans-(4-(5-(2-(cyclopropanesulfonimidoyl)-4-((1-methyl-1H-pyrazol-4-yl)amino)phenyl]thiazol-2-yl)cyclohexyl)carbamate]
- IC50 [1]: 30 nM
- IC50 [2]: > 25000 nM

Compound: Cc1cc(Nc2ccc(-c3cnc([C@H]4CC[C@H](NC(=O)OC(C)C)CC4)s3)c(S(=O)(=O)C3CCC3)c2)n[nH]1 [Example 88, isopropyl trans-(4-(5-(2-(cyclobutylsulfonyl)-4-((5-methyl-1H-pyrazol-3-yl)amino)phenyl)thiazol-2-yl)cyclohexyl)carbamate]
- IC50 [1]: 4 nM
- IC50 [2]: > 25000 nM

Compound: Cc1cc(Nc2ccc(-c3cnc([C@H]4CC[C@H](NC(=O)OC(C)C)CC4)s3)c(S(=N)(=O)C3CCC3)c2)n[nH]1 (stereo partly drawn) [Example 101, isopropyl trans-(4-(5-(2-(cyclobutanesulfonimidoyl)-4-((5-methyl-1H-pyrazol-3-yl)amino)phenyl]thiazol-2-yl)cyclohexyl)carbamate]
- IC50 [1]: 28 nM
- IC50 [2]: > 25000 nM

Compound: CC(C)OC(=O)N[C@H]1CC[C@H](c2ncc(-c3ccc(Nc4cnn(CCF)c4)cc3S(=N)(=O)C3CCC3)s2)CC1 (stereo partly shown) [Example 102]
- IC50 [1]: 17 nM
- IC50 [2]: > 25000 nM

Compound: CC(C)OC(=O)N[C@H]1CC[C@H](c2ncc(-c3ccc(Nc4cnn(CCF)c4)cc3P3(=O)CCC3)s2)CC1 [Example 104, isopropyl trans-(4-(5-(4-((1-(2-fluoroethyl)-1H-pyrazol-4-yl)amino)-2-(1-oxophosphetan-1-yl)phenyl)thiazol-2-yl)cyclohexyl)carbamate]
- IC50 [1]: 23 nM
- IC50 [2]: > 25000 nM

Compound: Cc1cc(Nc2ccc(-c3cnc([C@H]4CC[C@H](NC(=O)OC(C)C)CC4)s3)c(S(=O)(=O)C3CN(C)C3)c2)n[nH]1 [Example 114, isopropyl trans-(4-(5-(4-((5-methyl-1H-pyrazol-3-yl)amino)-2-((1-methylazetidin-3-yl)sulfonyl)phenyl)thiazol-2-yl)cyclohexyl)carbamate]
- IC50 [1]: 14 nM
- IC50 [2]: > 25000 nM

Compound: Cc1cc(Nc2ccc(-c3cnc([C@H]4CC[C@H](NC(=O)OC(C)C)CC4)s3)c(S(=O)(=O)C3CCOC3)c2)n[nH]1 (stereo partly drawn) [Example 115, isopropyl trans-(4-(5-(4-((5-methyl-1H-pyrazol-3-yl)amino)-2-((tetrahydrofuran-3-yl)sulfonyl)phenyl)thiazol-2-yl)cyclohexyl)carbamate]
- IC50 [1]: 16 nM
- IC50 [2]: > 25000 nM

Compound: Cc1cc(Nc2ccc(-c3cnc([C@H]4CC[C@H](NC(=O)OC(C)C)CC4)s3)c(S(=O)(=O)C3COC3)c2)n(C)n1 [Example 117, isopropyl trans-(4-(5-(4-((1,3-dimethyl-1H-pyrazol-5-yl)amino)-2-(oxetan-3-ylsulfonyl)phenyl)thiazol-2-yl)cyclohexyl)carbamate]
- IC50 [1]: 7 nM
- IC50 [2]: 20000 nM
